Data as given in ChEMBL document CHEMBL1157914, “5,5'-substituted indirubin-3'-oxime derivatives as potent cyclin-dependent kinase inhibitors with anticancer activity” (J Med Chem, 2010).
Activity calls are given as the source filed them. The rule behind the calls is not given here.

Legend:
[1] = Antiproliferative activity against human […] cells after 3 days by SRB assay; type: functional, cell-based; conditions: 72 h
[2] = target: Cyclin-dependent kinase 2/cyclin E1 (Homo sapiens, UniProt P24941); test: Inhibition of CDK2/cyclin E; type: protein-complex assay
[3] = Selectivity ratio for CDK2/cyclinE over CDK1/cyclin B
MCF7 = test: Antiproliferative activity against human MCF7 cells after 3 days by SRB assay; type: functional, cell-based; conditions: MCF7, 72 h
A549 = test: Antiproliferative activity against human A549 cells after 3 days by SRB assay; type: functional, cell-based; conditions: A549, 72 h
K562 = test: Antiproliferative activity against human K562 cells after 3 days by SRB assay; type: functional, cell-based; conditions: K562, 72 h
[4] = target: Cyclin-dependent kinase 2/cyclin E1 (Homo sapiens) (UniProt P24864+P24941); test: Inhibition of CDK2/cyclin E as percent residual activity; type: protein-complex assay; parameters: Residual activity / inhibition: concentration or dose not given beside the values
SNU-638 = test: Antiproliferative activity against human SNU638 cells after 3 days by SRB assay; type: functional, cell-based; conditions: SNU-638, 72 h
KB = test: Antiproliferative activity against human KB cells after 3 days by SRB assay; type: functional, cell-based; conditions: 72 h
HT-1080 = test: Antiproliferative activity against human HT1080 cells after 3 days by SRB assay; type: functional, cell-based; conditions: HT-1080, 72 h
[5] = target: Cyclin-dependent kinase 1/cyclin B1 (Homo sapiens) (UniProt P06493+P14635); test: Inhibition of CDK1/cyclin B at 1 uM after 40 mins by lequid scintillation counting; type: protein-complex assay
[6] = Solubility of compound in 3 equimolar NaOH and 0.1 N NaHCO3 buffer; type: physicochemical
[7] = Solubility of compound in 2 equimolar NaOH and distilled water; type: physicochemical; conditions: buffer
[8] = Solubility of compound in 3 equimolar NaOH and distilled water; type: physicochemical; conditions: buffer
[9] = Aqueous solubility of compound in water; type: physicochemical; conditions: buffer

Chain of Cyclin-dependent kinase 1/cyclin B1 (Homo sapiens) (P06493 whole entry, looked up): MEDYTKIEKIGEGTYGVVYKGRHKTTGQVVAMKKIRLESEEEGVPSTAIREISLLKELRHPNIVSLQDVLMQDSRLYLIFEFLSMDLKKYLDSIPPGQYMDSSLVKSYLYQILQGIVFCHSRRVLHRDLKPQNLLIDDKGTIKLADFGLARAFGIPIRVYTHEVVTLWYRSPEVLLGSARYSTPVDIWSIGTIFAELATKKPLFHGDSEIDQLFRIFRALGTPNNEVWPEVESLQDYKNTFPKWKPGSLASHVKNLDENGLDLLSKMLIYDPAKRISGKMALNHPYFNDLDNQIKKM
Chain of Cyclin-dependent kinase 1/cyclin B1 (Homo sapiens) (P14635 whole entry, looked up): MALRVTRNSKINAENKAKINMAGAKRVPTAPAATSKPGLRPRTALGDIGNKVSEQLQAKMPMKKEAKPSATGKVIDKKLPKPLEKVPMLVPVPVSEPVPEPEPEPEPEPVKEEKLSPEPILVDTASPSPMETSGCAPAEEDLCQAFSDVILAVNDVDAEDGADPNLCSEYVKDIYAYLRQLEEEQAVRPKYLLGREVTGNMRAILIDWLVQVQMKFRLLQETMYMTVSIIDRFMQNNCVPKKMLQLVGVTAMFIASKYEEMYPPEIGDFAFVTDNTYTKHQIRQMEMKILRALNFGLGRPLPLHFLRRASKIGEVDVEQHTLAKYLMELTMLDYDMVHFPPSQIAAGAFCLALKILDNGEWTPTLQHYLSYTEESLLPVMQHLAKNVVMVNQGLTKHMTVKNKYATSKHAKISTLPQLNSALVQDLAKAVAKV

| SMILES | IC50 [1] [µM] | IC50 [2] [µM] | Selectivity ratio [3] | IC50 (MCF7) [µM] | IC50 (A549) [µM] | IC50 (K562) [µM] | Residual activity [4] [%] | IC50 (SNU-638) [µM] | IC50 (KB) [µM] | IC50 (HT-1080) [µM] | Activity [5] | Activity [4] | inhibition [5] | inhibition [4] | solubility [6] [µg/mL] | solubility [7] [µg/mL] | solubility [8] [µg/mL] | solubility [9] |
| --- | --- | --- | --- | --- | --- | --- | --- | --- | --- | --- | --- | --- | --- | --- | --- | --- | --- | --- |
| O=C1Nc2ccc(Cl)cc2/C1=C1/Nc2ccc(Cl)cc2/C1=N/O | 1.86 | 0.0111 | 6 | 6.14 | > 20 | 17.2 | 90 | 2.57 | 11.9 | 12.2 |  |  |  |  |  |  |  |  |
| O=C1Nc2ccc(F)cc2/C1=C1/Nc2ccc(F)cc2/C1=N/O | 13.5 | 0.00183 | 6 | 6.57 | 10.3 | 15.9 | 90 | 2.23 | 13.2 | 8.62 |  |  |  |  |  |  |  |  |
| COc1ccc2c(c1)C(=N/O)/C(=C1/C(=O)Nc3ccc(F)cc31)N2 | 3.59 | 4.12 |  | > 20 | 6.71 | 5.29 |  | 13.6 | > 20 | 4.84 | inactive | inactive |  |  |  |  |  |  |
| O=C1Nc2ccc([N+](=O)[O-])cc2/C1=C1/Nc2ccc(F)cc2/C1=N/O | 0.28 | 0.00171 | 6 | 0.91 | 0.57 | 0.46 | 90 | 0.94 | 0.92 | 0.64 |  |  |  |  |  |  |  |  |
| O=C1Nc2ccc(F)cc2/C1=C1/Nc2ccc(Cl)cc2/C1=N/O | 1.72 | 0.0101 | 6 | 3.52 | 18.9 | 14.7 | 90 | 2.28 | 3.62 | 3.62 |  |  |  |  |  |  |  |  |
| Cc1ccc2c(c1)C(=N/O)/C(=C1/C(=O)Nc3ccc(F)cc31)N2 | > 20 |  |  | 10.5 | > 20 | > 20 | 90 | 11.5 | 10.6 | > 20 |  |  |  |  |  |  |  |  |
| COc1ccc2c(c1)C(=N/O)/C(=C1/C(=O)Nc3ccc([N+](=O)[O-])cc31)N2 | > 20 | 2.95 |  | > 20 | > 20 | > 20 |  | > 20 | > 20 | > 20 |  |  | inactive | inactive |  |  |  |  |
| O=C1Nc2ccc(OC(F)(F)F)cc2/C1=C1/Nc2ccc(O)cc2/C1=N/O | 2.25 | 0.00832 |  | 4.23 | 16.9 | 5.91 | 90 | 2.96 | 5.81 | 2.28 |  |  |  |  |  |  |  |  |
| O=C1Nc2ccc(OC(F)(F)F)cc2/C1=C1/Nc2ccc(Cl)cc2/C1=N/O | 3.79 | 0.0762 | 6 | 4.23 | > 20 | > 20 |  | 2.71 | 2.83 | 17.7 | inactive | inactive |  |  |  |  |  |  |
| O=C1Nc2ccc([N+](=O)[O-])cc2/C1=C1/Nc2ccc(Br)cc2/C1=N/O | 0.45 |  |  | 0.95 | 16.9 | 0.77 |  | 1.14 | 1.16 | 1.45 |  |  |  |  | < 100 | < 100 | < 100 | Insoluble |
| Cc1ccc2c(c1)C(=N/O)/C(=C1/C(=O)Nc3ccc(OC(F)(F)F)cc31)N2 | > 20 |  |  | 7.31 | > 20 | > 20 | 90 | > 20 | 8.13 | > 20 |  |  |  |  |  |  |  |  |
| O=C1Nc2ccc(Cl)cc2/C1=C1/Nc2ccc(O)cc2/C1=N/O | 3.51 | 0.00527 |  | 10.7 | 16.4 | 12.2 | 90 | 5.14 | 10.2 | 2.92 |  |  |  |  |  |  |  |  |
| O=C1Nc2ccc(OC(F)(F)F)cc2/C1=C1/Nc2ccc(F)cc2/C1=N/O | 1.51 | 0.0603 | 6 | 4.12 | 19.9 | 1.53 | 90 | 1.89 | 3.81 | 3.95 |  |  |  |  |  |  |  |  |
| O=C1Nc2ccc(Cl)cc2/C1=C1/Nc2ccc(F)cc2/C1=N/O | 3.31 | 0.00801 | 6 | 7.13 | > 20 | 7.14 | 90 | 6.32 | 9.11 | 5.33 |  |  |  |  |  |  |  |  |
| Cc1ccc2c(c1)C(=N/O)/C(=C1/C(=O)Nc3ccc([N+](=O)[O-])cc31)N2 | 1.41 | 0.00868 | 7 | 1.06 | > 20 | 0.81 | 90 | 1.06 | 2.11 | 3.92 |  |  |  |  |  |  |  |  |
| Cc1ccc2c(c1)C(=N/O)/C(=C1/C(=O)Nc3ccc(Cl)cc31)N2 | 18.8 |  |  | 8.79 | > 20 | > 20 | 90 | 12.7 | 5.18 | > 20 |  |  |  |  |  |  |  |  |
| O=C1Nc2ccc(F)cc2/C1=C1/Nc2ccc(O)cc2/C1=N/O | 1.66 | 0.00225 |  | 2.61 | 4.09 | 1.42 | 90 | 2.11 | 4.62 | 0.68 |  |  |  |  |  |  |  |  |
| COc1ccc2c(c1)C(=N/O)/C(=C1/C(=O)Nc3ccc(OC(F)(F)F)cc31)N2 | > 20 | 8.62 |  | 13.2 | > 20 | > 20 |  | > 20 | 20 | > 20 | inactive | inactive |  |  |  |  |  |  |
| O=Nc1c(-c2c(O)[nH]c3ccc([N+](=O)[O-])cc23)[nH]c2ccccc12 |  | 0.00735 |  |  |  |  |  |  |  |  |  |  |  |  | < 100 | < 100 | < 100 | Insoluble |
